Reference: patent publication US8853406B2, “Substituted phenylenediamines as inhibitors of the interaction between MDM2 and P53” (Janssen Pharmaceutica NV, priority 2007, dated 2014)

Tests used:
[1] = tested on: Male NMRI mice; assay: Ro-4-1284 antagonism in mice (drug induced neurological effects); format: in vivo; conditions: for activity on observations in Ro-4-1284 antagonism test: 80 mg/kg, oral administration, 3 animals; for drug induced neurological side effects: Ro-4-1284 antagonism in mice
Procedure: The test is a modification of a procedure described by Colpaert et al. (1975).^3 Male NMRI mice (22±3 g) were housed in macrolon observation cages (L×W×H: 11×12×17 cm; n=3 per cage). At the start of the experiments immediately before test compound administration, the initial body temperature of the mice was measured with a precision of 0.1° C. by inserting the thermo-sensitive probe (1.0 mm diameter) of an electric thermometer (Comark) to a constant depth of 3 cm into the esophagus until a stable reading was obtained. The right eye pupil diameter was measured with a graduated microscope and expressed in 1/24 mm units. Fifteen min after test compound administration, the mice were challenged with Ro-4-1284 (10 mg/kg, s.c.). Ro-4-1284 is a reserpine-like vesicular monoamine transport (VMAT-2) inhibitor, which rapidly depletes secretory vesicles.^3,4 Fifteen, 30 and 60 min after challenge, the mice were scored for palpebral opening (0, 1, 2, 3, 4, 5) and locomotor activity (−1, 0, 1, 2, 3). At the 60-min interval, immediately after the scoring of overt behavior, the right eye pupil diameter and the esophageal temperature were measured again. Abnormal phenomena such as intensive sniffing, chewing, rearing, hyperemia, piloerection, salivation, tremors, convulsions and death were noted (the latter phenomena were also noted when occurring before Ro-4-1284 administration). Criteria for drug-induced effects: reversal of ptosis: palpebral opening score >1 at 15, 30 or 60 min (2.7, 0.5 and 0% false positive controls, respectively; n>350); induction of prostration: score −1 for locomotion at 15, 30 or 60 min (never observed in controls); reversal of hypomotility: score >0 for locomotion at 15, 30 and 60 min (2.2, 0.8 and 0% false positive controls, respectively); reversal of miosis: pupil diameter >5 units at 60 min (0.8% false positives); potentiation of hypothermia: temperature decrease (over the 1-h time interval)>9.0° C. (1.4% false positives); reversal of hypothermia: temperature decrease <3.0° C. (1.8% false positives).
According to the standard procedure, R0-4-1284 is injected 15 min following subcutaneous or oral administration and observations start 15 min later. Doses are initially given to 3 animals. When at least 2 out of the 3 animals show activity for at least one of the observations, the compound is considered active.

[2] = tested on: human U87 gliomoblastoma xenograft tumors; assay: In vivo anti tumour effects, U87 glioblastoma xenograft; parameters: species or system NMRI Nude mice; conditions: for tumor growth of pre-established U87 xenograft: 21 days; for in vivo antitumoral activity: s.c. U87 xenograft in NMRI Nude mice
Procedure: FIG. 7 is the Antitumoral effect of compound No. 1 in U87 Glioblastoma Xenograft Tumors in NMRI Nude mice: • On day 0, male NMRI Nude mice were inoculated with a single subcutaneous injection into the inguinal region with human U87 Glioblastoma tumor cells ([…]). On day 8, mice were treated p.o. with vehicle (control group; 10% hydroxypropyl-β-cyclodextrin (□)) or vehicle containing Co No. 1 at either 2.5 mg/kg (▴), 5 mg/kg (▾), 10 mg/kg (♦) or 20 mg/kg (●) for 21 days (QD×21). Subcutaneous tumor volumes and body weights were measured twice weekly, until end of study and results represented as relative tumor volumes (mm^3). Dosing period indicated under x-axis.
The minimal efficacious dose (according to the NCI standard) in this model was 5 mg/kg.
Immuno-deficient (athymic) male NMRI Nude (Nu/Nu) mice (20-25 g were obtained from Janvier, France) were used for theses studies. Initial weight was approximately […]. All animals were maintained under SPF “full barrier” conditions with free access to food and water. Mice were group housed under a 12-h light:dark cycle (lights on at 06:00 h) at a temperature of 19 to 22° C. and 35 to 40% humidity in Techniplast type-3 IVC cages. Mice were fed a standard Laboratory chow. All experiments were carried out in accordance with the European Communities Council Directives (86/609/EEC) and were approved by the local ethical committee. For an established tumor xenograft model (tumor volume ˜200 mm^3), mice were randomized according to tumor volumes, with 10 to 14 mice per treatment group.
The human U87 glioma tumor cell line was derived from a patient. Cells were cultured at 37° C. in a humidified atmosphere (5% CO2, 95% air), in DMEM medium supplemented with 2 mM L-glutamine, 2.0 mM sodium pyruvate, 25 units/ml penicillin/25 μg/ml streptomycin and 10% fetal bovine serum. Cells were maintained as cell monolayer cultures, being passaged twice weekly at 3×10^6 cells per T175 flask using the following procedure. Briefly cells were washed with PBS (without Mg^2+, Ca^2+), before addition of trypsin-EDTA to the culture flasks. After detachment of cells the trypsin-EDTA was inactivated by addition of complete medium. Cell suspension was then transferred to 50 ml Falcon tube and centrifuged for 3 min at 1200 rpm. Medium was aspirated, with the cells being re-suspended in an appropriate volume of complete medium. The cells were counted in a haemocytometer and their viability was assessed by 0.25% trypan blue exclusion. An appropriate volume of cell suspension was then added to either a new T175 culture flask(s) or roller bottle containing fresh medium. For large scale-up growth of U87 tumor cells, an appropriate number of roller bottles were seeded with 0.5 to 1×10^7 cells 1 week prior to inoculation of mice. The medium was changed twice during this period, with the last change being the day prior to cell injection. Cells were collected as described above, with the exception that after centrifugation, the cells were re-suspended in cold (4° C.) serum-free medium. Mice were injected in the inguinal region with 1×10^7 cells total in a 200 μl volume.
Human U87 glioma cells were injected directly into the inguinal region of the male NMRI Nude mice (1×10^7 cells/200 μl/animal) on day 0 (D0). […] Tumor size and body weights were measured twice weekly, with mice monitored daily for clinical signs of toxicity for the duration of the treatment. […]

SMILES | activity on observations in Ro-4-1284 antagonism test [1] | drug induced neurological side effects [1] | tumor growth of pre-established U87 xenograft ([2]; 10 mg/kg oral) | tumor growth of pre-established U87 xenograft ([2]; 20 mg/kg oral) | minimal efficacious dose (according to the NCI standard) ([2]; U87 xenograft, oral QD x 21) [mg/kg] | in vivo antitumoral activity ([2]; listed as Co No. 1) | in vivo antitumoral activity [2]
Cc1cc(Nc2ccnc3c2CCC3O)ccc1NCCc1c[nH]c2c(C)cccc12 (single isomer, unassigned) [Compound No. 1] | did not show activity on any observation on any animal | No | complete tumor growth inhibition and regression | complete tumor growth inhibition and regression | 5 | potent inhibition in growth | 
Cc1cc(Nc2ccnc3c2CCC3O)ccc1NCCc1c[nH]c2c(C)cccc12 (single isomer, unassigned) [Compound No. 2] | did not show activity on any observation on any animal | No |  |  |  |  | showed in vivo antitumoral activity
